For one test, the target named is T1, Dihydrofolate reductase (Homo sapiens, UniProt P00374).
T1 sequence (P00374 whole entry): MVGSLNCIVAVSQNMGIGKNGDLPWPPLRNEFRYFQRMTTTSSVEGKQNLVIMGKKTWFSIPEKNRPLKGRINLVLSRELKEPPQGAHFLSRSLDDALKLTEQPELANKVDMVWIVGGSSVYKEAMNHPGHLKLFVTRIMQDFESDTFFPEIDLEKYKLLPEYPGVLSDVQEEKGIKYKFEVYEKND
Kind of test: Not found.

The target in test [1] is Bifunctional dihydrofolate reductase-thymidylate synthase (Leishmania major, UniProt P07382). Kind of test: Not found.

Each structure is given as a SMILES string.

We go through one molecule from BindingDB's records for patent US11530198 (Vyera Pharmaceuticals, 2022).

Bifunctional dihydrofolate reductase-thymidylate synthase, sequence (P07382 whole entry): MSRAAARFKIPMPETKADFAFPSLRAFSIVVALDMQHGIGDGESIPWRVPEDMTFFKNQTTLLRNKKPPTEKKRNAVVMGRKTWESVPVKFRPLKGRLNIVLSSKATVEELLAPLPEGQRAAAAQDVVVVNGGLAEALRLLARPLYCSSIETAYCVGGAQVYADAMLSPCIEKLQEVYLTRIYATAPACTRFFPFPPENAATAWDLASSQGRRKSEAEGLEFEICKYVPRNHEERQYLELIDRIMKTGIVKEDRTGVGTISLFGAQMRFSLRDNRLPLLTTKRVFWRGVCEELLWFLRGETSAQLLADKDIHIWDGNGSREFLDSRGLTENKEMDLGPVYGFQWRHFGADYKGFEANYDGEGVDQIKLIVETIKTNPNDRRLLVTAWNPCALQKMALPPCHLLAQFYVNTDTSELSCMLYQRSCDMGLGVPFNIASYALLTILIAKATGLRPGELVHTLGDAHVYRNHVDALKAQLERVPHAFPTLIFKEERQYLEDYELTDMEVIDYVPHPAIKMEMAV

For `Nc1ncc(N2CCN(c3ccccc3-c3ccccc3)CC2)c(N)n1` [US11530198, Example 12], the concentration for half-maximal inhibition (IC50) (as a rule, the concentration at which inhibition is half-maximal) on Dihydrofolate reductase is 214 nM; in test [1] it was 7.41 nM.
